The NIST ThermoML archive (doi:10.1016/j.jct.2013.03.013)
Values joined by “and” are separate entries in the source; they are usually repeats but may differ in a detail not shown here. Equal entries are not always repeated.

Settings: Liquid, Vibrating wire viscometry

FCC(F)(F)F [1,1,1,2-tetrafluoroethane]
viscosity
Settings	1000 kPa	2000 kPa	3000 kPa	5000 kPa	10000 kPa	15000 kPa	20000 kPa	25000 kPa	30000 kPa
253.14 K	0.3564 mPa·s	–	–	0.3729 mPa·s	0.3937 mPa·s	0.4141 mPa·s	0.4329 mPa·s	0.4553 mPa·s	0.4776 mPa·s
253.16 K	–	–	0.3626 mPa·s	–	0.3914 mPa·s	–	–	–	–
273.15 K	0.2713 mPa·s	–	0.2791 mPa·s	0.2873 mPa·s	0.3052 mPa·s and 0.3031 mPa·s	0.3211 mPa·s	0.3387 mPa·s	0.357 mPa·s	0.3759 mPa·s
293.15 K	0.2115 mPa·s	–	0.2177 mPa·s	0.2227 mPa·s	0.2398 mPa·s and 0.2412 mPa·s	0.2556 mPa·s	0.2725 mPa·s	0.287 mPa·s	0.3023 mPa·s
313.14 K	–	0.1653 mPa·s	0.1693 mPa·s	0.1758 mPa·s	0.1918 mPa·s and 0.1929 mPa·s	0.2068 mPa·s	0.2228 mPa·s	0.236 mPa·s	0.2501 mPa·s
333.16 K	–	0.1247 mPa·s	0.1296 mPa·s	0.1373 mPa·s	0.1537 mPa·s and 0.1543 mPa·s	0.1703 mPa·s	0.1839 mPa·s	0.1966 mPa·s	0.2089 mPa·s
353.15 K	–	–	–	0.1034 mPa·s	0.1246 mPa·s	–	–	–	–
353.16 K	–	–	0.0916 mPa·s	0.1032 mPa·s	0.124 mPa·s	0.1391 mPa·s	0.1535 mPa·s	0.1657 mPa·s	0.1779 mPa·s
